Test results taken from ChEMBL document CHEMBL5137128, “Daphnoretin Arrests the Cell Cycle and Induces Apoptosis in Human Breast Cancer Cells” (J Nat Prod, 2022).
Active and inactive are the calls of the source. No cut-off for these calls is given here.

How the values were obtained:
[1] = tested on: MCF7; assay: Induction of cell cycle arrest in human MCF7 cells assessed as G2/M phase cells at 2 uM incubated for 24 hrs by propidium iodide staining based flow cytometry analysis (reference value: 0.86 %); type: functional
[2] = tested on: MCF7; assay: Induction of cell cycle arrest in human MCF7 cells assessed as accumulation of S phase cells at 1 uM incubated for 24 hrs by propidium iodide staining based flow cytometry analysis (reference value: 27.84 %); type: functional
[3] = tested on: MCF7; assay: Induction of apoptosis in human MCF7 cells assessed as decrease in Bcl-2 level at 1 to 4 uM measured upto 24 hrs by Western blot analysis; type: functional, cell-based; conditions: dose 1-4 µM
[4] = tested on: MCF7; assay: Induction of apoptosis in human MCF7 cells assessed as increase in cleaved caspase-3 level at 1 to 4 uM measured upto 24 hrs by Western blot analysis; type: functional, cell-based; conditions: dose 1-4 µM
[5] = tested on: MDA-MB-231; assay: Induction of cell cycle arrest in human MDA-MB-231 cells assessed as G2/M phase cells at 0.5 uM incubated for 24 hrs by propidium iodide staining based flow cytometry analysis (reference value: 4.44 %); type: functional
[6] = tested on: MCF7; assay: Induction of morphological changes in human MCF7 cells assessed as decrease in cell numbers at 1 to 4 uM by electron microscopic analysis; type: functional, cell-based; conditions: dose 1-4 µM
[7] = tested on: MDA-MB-231; assay: Induction of cell cycle arrest in human MDA-MB-231 cells assessed as G2/M phase cells at 2 uM incubated for 24 hrs by propidium iodide staining based flow cytometry analysis (reference value: 4.44 %); type: functional
[8] = tested on: MCF7; assay: Induction of cell cycle arrest in human MCF7 cells assessed as downregulation of cyclin E expression at 1 to 4 uM measured upto 24 hrs by Western blot analysis relative to control; type: functional, cell-based; conditions: dose 1-4 µM
[9] = tested on: MDA-MB-231; assay: Induction of cell cycle arrest in human MDA-MB-231 cells assessed as accumulation of S phase cells at 0.5 uM incubated for 24 hrs by propidium iodide staining based flow cytometry analysis (reference value: 28.71 %); type: functional
[10] = tested on: MDA-MB-231; assay: Induction of morphological changes in human MDA-MB-231 cells assessed as cell shrinkage at 0.5 to 2 uM by electron microscopic analysis; type: functional, cell-based; conditions: dose 0.5-2 µM
[11] = tested on: MCF7; assay: Induction of cell cycle arrest in human MCF7 cells assessed as accumulation of S phase cells at 4 uM incubated for 24 hrs by propidium iodide staining based flow cytometry analysis (reference value: 27.84 %); type: functional
[12] = tested on: MDA-MB-231; assay: Induction of cell cycle arrest in human MDA-MB-231 cells assessed as downregulation of cyclin E expression at 0.5 to 2 uM measured upto 24 hrs by Western blot analysis relative to control; type: functional, cell-based; conditions: dose 0.5-2 µM
[13] = tested on: MDA-MB-231; assay: Induction of apoptosis in human MDA-MB-231 cells assessed as increase in Bax level at 0.5 to 2 uM measured upto 24 hrs by Western blot analysis; type: functional, cell-based; conditions: dose 0.5-2 µM
[14] = tested on: MCF7; assay: Induction of apoptosis in human MCF7 cells assessed as increase in Bax level at 1 to 4 uM measured upto 24 hrs by Western blot analysis; type: functional, cell-based; conditions: dose 1-4 µM
[15] = tested on: MCF7; assay: Induction of apoptosis in human MCF7 cells assessed as nuclear condensation at 1 to 4 uM incubated for 24 hrs by Hoechst 33258 staining based light microscopic analysis; type: functional, cell-based; conditions: dose 1-4 µM
[16] = tested on: MCF7; assay: Induction of apoptosis in human MCF7 cells assessed as increase in total apoptotic rate at 1 to 4 uM incubated for 24 hrs by propidium iodide staining based flow cytometric analysis; type: functional, cell-based; conditions: dose 1-4 µM
[17] = tested on: MCF7; assay: Induction of cell cycle arrest in human MCF7 cells assessed as downregulation of CDK2 expression at 1 to 4 uM measured upto 24 hrs by Western blot analysis relative to control; type: functional, cell-based; conditions: dose 1-4 µM
[18] = tested on: MCF7; assay: Induction of morphological changes in human MCF7 cells assessed as deformed cells at 1 to 4 uM by electron microscopic analysis; type: functional, cell-based; conditions: dose 1-4 µM
[19] = tested on: MDA-MB-231; assay: Inhibition of PI3K phosphorylation in human MDA-MB-231 cells at 0.5 to 2 uM by Western blot analysis; type: cell-based; conditions: dose 0.5-2 µM
[20] = tested on: MDA-MB-231; assay: Induction of morphological changes in human MDA-MB-231 cells assessed as decrease in cell numbers at 0.5 to 2 uM by electron microscopic analysis; type: functional, cell-based; conditions: dose 0.5-2 µM
[21] = tested on: MDA-MB-231; assay: Induction of apoptosis in human MDA-MB-231 cells assessed as chromatin condensation at 0.5 to 2 uM incubated for 24 hrs by Hoechst 33258 staining based light microscopic analysis; type: functional, cell-based; conditions: dose 0.5-2 µM
[22] = tested on: MCF7; assay: Induction of apoptosis in human MCF7 cells assessed as increase in cleaved caspase-9 level at 1 to 4 uM measured upto 24 hrs by Western blot analysis; type: functional, cell-based; conditions: dose 1-4 µM
[23] = tested on: MCF7; assay: Inhibition of PI3K phosphorylation in human MCF7 cells at 1 to 4 uM by Western blot analysis; type: cell-based; conditions: dose 1-4 µM
[24] = tested on: MDA-MB-231; assay: Induction of cell cycle arrest in human MDA-MB-231 cells assessed as G0-G1 phase cells at 1 uM incubated for 24 hrs by propidium iodide staining based flow cytometry analysis (reference value: 66.84 %); type: functional
[25] = tested on: MDA-MB-231; assay: Antiproliferative activity human MDA-MB-231 cells assessed as inhibition of cell proliferation at 0.1 to 8 uM incubated for 48 hrs by MTT assay; type: functional, cell-based; conditions: dose 0.1-8 µM
[26] = tested on: MDA-MB-231; assay: Induction of cell cycle arrest in human MDA-MB-231 cells assessed as G0-G1 phase cells at 2 uM incubated for 24 hrs by propidium iodide staining based flow cytometry analysis (reference value: 66.84 %); type: functional
[27] = tested on: MCF7; assay: Induction of apoptosis in human MCF7 cells assessed as apoptotic bodies at 1 to 4 uM incubated for 24 hrs by Hoechst 33258 staining based light microscopic analysis; type: functional, cell-based; conditions: dose 1-4 µM
[28] = tested on: MCF7; assay: Induction of cell cycle arrest in human MCF7 cells assessed as G2/M phase cells at 4 uM incubated for 24 hrs by propidium iodide staining based flow cytometry analysis (reference value: 0.86 %); type: functional
[29] = tested on: MCF7; assay: Induction of cell cycle arrest in human MCF7 cells assessed as G0-G1 phase cells at 4 uM incubated for 24 hrs by propidium iodide staining based flow cytometry analysis (reference value: 71.30 %); type: functional
[30] = tested on: MDA-MB-231; assay: Induction of cell cycle arrest in human MDA-MB-231 cells assessed as G2/M phase cells at 1 uM incubated for 24 hrs by propidium iodide staining based flow cytometry analysis (reference value: 4.44 %); type: functional
[31] = tested on: MDA-MB-231; assay: Antiproliferative activity human MDA-MB-231 cells assessed as inhibition of cell proliferation incubated for 24 hrs by MTT assay; type: functional, cell-based; conditions: MDA-MB-231, 24 h
[32] = tested on: MDA-MB-231; assay: Induction of apoptosis in human MDA-MB-231 cells assessed as nuclear condensation at 0.5 to 2 uM incubated for 24 hrs by Hoechst 33258 staining based light microscopic analysis; type: functional, cell-based; conditions: dose 0.5-2 µM
[33] = tested on: MDA-MB-231; assay: Induction of apoptosis in human MDA-MB-231 cells assessed as increase in total apoptotic rate at 0.5 to 2 uM incubated for 24 hrs by propidium iodide staining based flow cytometry analysis relative to control; type: functional, cell-based; conditions: dose 0.5-2 µM
[34] = tested on: MCF7; assay: Induction of cell cycle arrest in human MCF7 cells assessed as G0-G1 phase cells at 1 uM incubated for 24 hrs by propidium iodide staining based flow cytometry analysis (reference value: 71.30 %); type: functional
[35] = tested on: MDA-MB-231; assay: Induction of cell cycle arrest in human MDA-MB-231 cells assessed as accumulation of S phase cells at 2 uM incubated for 24 hrs by propidium iodide staining based flow cytometry analysis (reference value: 28.71 %); type: functional
[36] = tested on: MCF7; assay: Inhibition of AKT phosphorylation in human MCF7 cells at 1 to 4 uM by Western blot analysis; type: cell-based; conditions: dose 1-4 µM
[37] = tested on: MCF7; assay: Induction of cell cycle arrest in human MCF7 cells assessed as G2/M phase cells at 1 uM incubated for 24 hrs by propidium iodide staining based flow cytometry analysis (reference value: 0.86 %); type: functional
[38] = tested on: MDA-MB-231; assay: Inhibition of AKT phosphorylation in human MDA-MB-231 cells at 0.5 to 2 uM by Western blot analysis; type: cell-based; conditions: dose 0.5-2 µM
[39] = tested on: MDA-MB-231; assay: Induction of cell cycle arrest in human MDA-MB-231 cells assessed as downregulation of CDK2 expression at 0.5 to 2 uM measured upto 24 hrs by Western blot analysis relative to control; type: functional, cell-based; conditions: dose 0.5-2 µM
[40] = tested on: MCF7; assay: Antiproliferative activity human MCF7 cells assessed as inhibition of cell proliferation at 0.1 to 8 uM incubated for 48 hrs by MTT assay; type: functional, cell-based; conditions: dose 0.1-8 µM
[41] = tested on: MCF7; assay: Induction of apoptosis in human MCF7 cells assessed as chromatin condensation at 1 to 4 uM incubated for 24 hrs by Hoechst 33258 staining based light microscopic analysis; type: functional, cell-based; conditions: dose 1-4 µM
[42] = tested on: MCF7; assay: Induction of morphological changes in human MCF7 cells assessed as cell shrinkage at 1 to 4 uM by electron microscopic analysis; type: functional, cell-based; conditions: dose 1-4 µM
[43] = tested on: MDA-MB-231; assay: Induction of apoptosis in human MDA-MB-231 cells assessed as increase in cleaved caspase-9 level at 0.5 to 2 uM measured upto 24 hrs by Western blot analysis; type: functional, cell-based; conditions: dose 0.5-2 µM
[44] = tested on: MDA-MB-231; assay: Induction of cell cycle arrest in human MDA-MB-231 cells assessed as G0-G1 phase cells at 0.5 uM incubated for 24 hrs by propidium iodide staining based flow cytometry analysis (reference value: 66.84 %); type: functional
[45] = tested on: MCF7; assay: Induction of cell cycle arrest in human MCF7 cells assessed as accumulation of S phase cells at 2 uM incubated for 24 hrs by propidium iodide staining based flow cytometry analysis (reference value: 27.84 %); type: functional
[46] = tested on: MDA-MB-231; assay: Induction of apoptosis in human MDA-MB-231 cells assessed as increase in cleaved caspase-3 level at 0.5 to 2 uM measured upto 24 hrs by Western blot analysis; type: functional, cell-based; conditions: dose 0.5-2 µM
[47] = tested on: MDA-MB-231; assay: Induction of apoptosis in human MDA-MB-231 cells assessed as decrease in Bcl-2 level at 0.5 to 2 uM measured upto 24 hrs by Western blot analysis; type: functional, cell-based; conditions: dose 0.5-2 µM
[48] = tested on: MCF7; assay: Antiproliferative activity human MCF7 cells assessed as inhibition of cell proliferation incubated for 24 hrs by MTT assay; type: functional, cell-based; conditions: MCF7, 24 h
[49] = tested on: MDA-MB-231; assay: Induction of morphological changes in human MDA-MB-231 cells assessed as deformed cells at 0.5 to 2 uM by electron microscopic analysis; type: functional, cell-based; conditions: dose 0.5-2 µM
[50] = tested on: MDA-MB-231; assay: Induction of cell cycle arrest in human MDA-MB-231 cells assessed as accumulation of S phase cells at 1 uM incubated for 24 hrs by propidium iodide staining based flow cytometry analysis (reference value: 28.71 %); type: functional
[51] = tested on: MDA-MB-231; assay: Induction of apoptosis in human MDA-MB-231 cells assessed as apoptotic bodies at 0.5 to 2 uM incubated for 24 hrs by Hoechst 33258 staining based light microscopic analysis; type: functional, cell-based; conditions: dose 0.5-2 µM
[52] = tested on: MCF7; assay: Induction of cell cycle arrest in human MCF7 cells assessed as G0-G1 phase cells at 2 uM incubated for 24 hrs by propidium iodide staining based flow cytometry analysis (reference value: 71.30 %); type: functional

In the case of `COc1cc2cc(Oc3ccc4ccc(=O)oc4c3)c(=O)oc2cc1O` [DAPHNORETIN], the Activity [1] is reported as 5.32%, the Activity [2] is reported as 38.59% and the Activity [3] is reported as “Active”. The Activity [4] was “Active”, the Activity [5] was 9.33% and the Activity [6] was “Active”. For the same molecule, the Activity [7] was 15.29%, the Activity [8] was “Active” and the Activity [9] was 37.3%. The Activity [10] was “Active”, the Activity [11] was 46.53% and the Activity [12] was “Active”. The Activity [13] was “Active”, the Activity [14] was “Active” and the Activity [15] was “Active”. The Activity [16] was “Active”, the Activity [17] was “Active” and the Activity [18] was “Active”. The inhibition [19] was “Active”, the Activity [20] was “Active” and the Activity [21] was “Active”. For the same molecule, the Activity [22] was “Active”, the inhibition [23] was “Active” and the Activity [24] was 46%. The Activity [25] was “Active”, the Activity [26] was 36.99% and the Activity [27] was “Active”. It also gave an Activity [28] of 2.2%, an Activity [29] of 51.27% and an Activity [30] of 8.43%. For the same molecule, the IC50 [31] was 1000 nM, the Activity [32] was “Active” and the Activity [33] was “Active”. For the same molecule, the Activity [34] was 59.49%, the Activity [35] was 47.72% and the inhibition [36] was “Active”. For the same molecule, the Activity [37] was 1.92%, the inhibition [38] was “Active” and the Activity [39] was “Active”. The Activity [40] was “Active”, the Activity [41] was “Active” and the Activity [42] was “Active”. The Activity [43] was “Active”, the Activity [44] was 53.37% and the Activity [45] was 43.73%. The Activity [46] was “Active”, the Activity [47] was “Active” and the IC50 [48] was 2000 nM. The Activity [49] was “Active”, the Activity [50] was 45.58% and the Activity [51] was “Active”. For the same molecule, the Activity [52] was 50.95%.
